The numbers were not newly measured in patent publication US20210260201A1, “EXTRACELLULAR VESICLES FOR THE TREATMENT AND PREVENTION OF INFECTIONS AND OTHER DISEASES” (PHYSIS BIOTECHNOLOGIES, LLC, priority 2020, published 2021), which cites them from elsewhere.

Molecules are shown by their SMILES. Read-outs that look alike come from different tables or passages of the source.

On to `C=C(C)[C@@H]1CCC(C)=C[C@H]1c1c(O)cc(CCCCC)cc1O` [CBD, cannabidiol], for which the bioavailability is, setting by setting: (intranasal) 34-46%; (oral (edibles)) 6-20%; (sublingual (tinctures)) 13-19%.
